Assay results from patent US20230278972A1, “SUBSTITUTED HALOALKYL SULFONANILIDE HERBICIDES” (FMC Corporation, priority 2020, published 2023).

What was measured:
Format in all cases: in vivo
[1] = system: Oat, Wild (wild oat, Avena fatua); assay: Test A1 preemergence, Oat, Wild
Text: (§1) Seeds of plant species selected from, blackgrass (Alopecurus myosuroides), corn (Zea mays), Foxtail, Giant (giant foxtail, Setaria faberi), goosegrass (Eleusine indica), kochia (Bassia scoparia), Oat, Wild (wild oat, Avena fatua), Pigweed, Palmer (palmer amaranth, palmer pigweed, Amaranthus palmeri), ragweed (common ragweed, Ambrosia artemisiifolia), Ryegrass, Italian (Italian ryegrass, Lolium multiflorum), soybean (Glycine max), and wheat (Triticum aestivum) were planted into a blend of loam soil and sand and treated preemergence with a directed soil spray using test chemicals formulated in a non-phytotoxic solvent mixture which included a surfactant. At the same time, plants selected from these crop and weed species and also galium (catchweed bedstraw, Galium aparine) and horseweed (Erigeron canadensis) were planted in pots containing the same blend of loam soil and sand and treated with postemergence applications of test chemicals formulated in the same manner. Plants ranged in height from 2 to 10 cm and were in the one- to two-leaf stage for the postemergence treatment. […] A dash (-) response means no test result.

rice (Oryza sativa) = assay: Test B1 flooded paddy test, rice; conditions: 250 g ai/ha, Flood, applied to paddy water, 2-leaf stage, visually evaluated after 10 to 14 days
Text: (§2) A dash (-) response means no test result.

soybean (Glycine max) [2] = assay: Test A1 preemergence, soybean
Text: as §1

soybean (Glycine max) [3] = assay: Test A1 postemergence, soybean; conditions: Postemergence
Text: as §1

[4] = system: wheat (Triticum aestivum); assay: Test A1 preemergence, wheat
Text: as §1

[5] = system: Pigweed, Palmer (palmer amaranth, palmer pigweed, Amaranthus palmeri); assay: Test A1 preemergence, Pigweed, Palmer
Text: as §1

[6] = system: ragweed (common ragweed, Ambrosia artemisiifolia); assay: Test A1 postemergence, ragweed; conditions: Postemergence
Text: as §1

kochia (Bassia scoparia) [7] = assay: Test A1 postemergence, kochia; conditions: Postemergence
Text: as §1

[8] = system: horseweed (Erigeron canadensis); assay: Test A1 postemergence, horseweed; conditions: Postemergence
Text: as §1

[9] = system: goosegrass (Eleusine indica); assay: Test A1 preemergence, goosegrass
Text: as §1

[10] = system: barnyardgrass (Echinochloa crus-galli); assay: Test B1 flooded paddy test, barnyardgrass; conditions: 250 g ai/ha, Flood, applied to paddy water, 2-leaf stage, visually evaluated after 10 to 14 days
Text: as §2

[11] = system: galium (catchweed bedstraw, Galium aparine); assay: Test A1 postemergence, galium; conditions: Postemergence
Text: as §1

[12] = system: blackgrass (Alopecurus myosuroides); assay: Test A1 preemergence, blackgrass
Text: as §1

[13] = system: ducksalad (Heteranthera limosa); assay: Test B1 flooded paddy test, ducksalad; conditions: 250 g ai/ha, Flood, applied to paddy water, 2-leaf stage, visually evaluated after 10 to 14 days
Text: as §2

[14] = system: wheat (Triticum aestivum); assay: Test A1 postemergence, wheat; conditions: Postemergence
Text: as §1

corn (Zea mays) [15] = assay: Test A1 preemergence, corn
Text: as §1

[16] = system: Pigweed, Palmer (palmer amaranth, palmer pigweed, Amaranthus palmeri); assay: Test A1 postemergence, Pigweed, Palmer; conditions: Postemergence
Text: as §1

[17] = system: Foxtail, Giant (giant foxtail, Setaria faberi); assay: Test A1 postemergence, Foxtail, Giant; conditions: Postemergence
Text: as §1

corn (Zea mays) [18] = assay: Test A1 postemergence, corn; conditions: Postemergence
Text: as §1

[19] = system: Oat, Wild (wild oat, Avena fatua); assay: Test A1 postemergence, Oat, Wild; conditions: Postemergence
Text: as §1

[20] = system: goosegrass (Eleusine indica); assay: Test A1 postemergence, goosegrass; conditions: Postemergence
Text: as §1

kochia (Bassia scoparia) [21] = assay: Test A1 preemergence, kochia
Text: as §1

[22] = system: ragweed (common ragweed, Ambrosia artemisiifolia); assay: Test A1 preemergence, ragweed
Text: as §1

[23] = system: Ryegrass, Italian (Italian ryegrass, Lolium multiflorum); assay: Test A1 preemergence, Ryegrass, Italian
Text: as §1

[24] = system: blackgrass (Alopecurus myosuroides); assay: Test A1 postemergence, blackgrass; conditions: Postemergence, 0 to 100 scale (0 no effect, 100 complete control)
Text: as §1

[25] = system: Ryegrass, Italian (Italian ryegrass, Lolium multiflorum); assay: Test A1 postemergence, Ryegrass, Italian; conditions: Postemergence
Text: as §1

[26] = system: Foxtail, Giant (giant foxtail, Setaria faberi); assay: Test A1 preemergence, Foxtail, Giant
Text: as §1

[27] = 31 g ai/ha, 0 to 100 scale (0 no effect, 100 complete control)
[28] = 125 g ai/ha, 0 to 100 scale, 0 no effect, 100 complete control
[29] = 31 g ai/ha, 0 to 100 scale (0 no effect, 100 complete control), 10 days

COc1cc(C)c(NS(=O)(=O)C(F)(F)F)cc1C1=NOC2CCCC12 (stereo not drawn) [Compound 312]
Plant response rating, Oat, Wild [1, 27]: 0
Plant response rating, Oat, Wild [1, 28]: 0
Plant response rating, Rice (0 to 100 scale, 0 is no effect, 100 is complete control) (rice (Oryza sativa)): 0
Plant response rating, Soybean (soybean (Glycine max) [2]; [27]): 0
Plant response rating, Soybean (soybean (Glycine max) [2]; [28]): 50
Plant response rating, Soybean (soybean (Glycine max) [3]; [29]): 20
Plant response rating, Soybean (soybean (Glycine max) [3]; 125 g ai/ha, 0 to 100 scale): 20
Plant response rating, Wheat [4, 27]: 0
Plant response rating, Wheat [4, 28]: 0
Plant response rating, Pigweed, Palmer [5, 27]: 0
Plant response rating, Pigweed, Palmer [5, 28]: 0
Plant response rating, Ragweed [6, 29]: 0
Plant response rating, Ragweed ([6]; 125 g ai/ha, 0 to 100 scale): 40
Plant response rating, Kochia (kochia (Bassia scoparia) [7]; [29]): 0
Plant response rating, Kochia (kochia (Bassia scoparia) [7]; 125 g ai/ha, 0 to 100 scale): 0
Plant response rating, Horseweed [8, 29]: 0
Plant response rating, Horseweed ([8]; 125 g ai/ha, 0 to 100 scale): 20
Plant response rating, Goosegrass [9, 27]: 0
Plant response rating, Goosegrass [9, 28]: 50
Plant response rating, Barnyardgrass (0 to 100 scale, 0 is no effect, 100 is complete control) [10]: 0
Plant response rating, Galium [11, 29]: 0
Plant response rating, Galium ([11]; 125 g ai/ha, 0 to 100 scale): 30
Plant response rating, Blackgrass [12, 27]: 0
Plant response rating, Blackgrass [12, 28]: 0
Plant response rating, Ducksalad (0 to 100 scale, 0 is no effect, 100 is complete control) [13]: 0
Plant response rating, Wheat [14, 29]: 0
Plant response rating, Wheat ([14]; 125 g ai/ha, 0 to 100 scale): 0
Plant response rating, Corn (corn (Zea mays) [15]; [27]): 0
Plant response rating, Corn (corn (Zea mays) [15]; [28]): 10
Plant response rating, Pigweed, Palmer [16, 29]: 0
Plant response rating, Pigweed, Palmer ([16]; 125 g ai/ha, 0 to 100 scale): 0
Plant response rating, Foxtail, Giant [17, 29]: 0
Plant response rating, Foxtail, Giant ([17]; 125 g ai/ha, 0 to 100 scale): 10
Plant response rating, Corn (corn (Zea mays) [18]; [29]): 0
Plant response rating, Corn (corn (Zea mays) [18]; 125 g ai/ha, 0 to 100 scale): 0
Plant response rating, Oat, Wild [19, 29]: 0
Plant response rating, Oat, Wild ([19]; 125 g ai/ha, 0 to 100 scale): 20
Plant response rating, Goosegrass [20, 29]: 0
Plant response rating, Goosegrass ([20]; 125 g ai/ha, 0 to 100 scale): 0
Plant response rating, Kochia (kochia (Bassia scoparia) [21]; [27]): 0
Plant response rating, Kochia (kochia (Bassia scoparia) [21]; [28]): 0
Plant response rating, Ragweed [22, 27]: 0
Plant response rating, Ragweed [22, 28]: 30
Plant response rating, Ryegrass, Italian [23, 27]: 0
Plant response rating, Ryegrass, Italian [23, 28]: 40
Plant response rating, Blackgrass ([24]; 31 g ai/ha, 10 days): 0
Plant response rating, Blackgrass ([24]; 125 g ai/ha): 0
Plant response rating, Ryegrass, Italian [25, 29]: 0
Plant response rating, Ryegrass, Italian ([25]; 125 g ai/ha, 0 to 100 scale): 20
Plant response rating, Foxtail, Giant [26, 27]: 20
Plant response rating, Foxtail, Giant [26, 28]: 30

Cc1cc(C)c(N(COC(=O)N(C)C)S(=O)(=O)C(F)(F)F)cc1C1=NOC2CCCC12 (stereo not drawn) [Compound 317]
Plant response rating, Oat, Wild [1, 27]: 0
Plant response rating, Oat, Wild [1, 28]: 0
Plant response rating, Rice (0 to 100 scale, 0 is no effect, 100 is complete control) (rice (Oryza sativa)): 0
Plant response rating, Soybean (soybean (Glycine max) [2]; [27]): 0
Plant response rating, Soybean (soybean (Glycine max) [2]; [28]): 0
Plant response rating, Soybean (soybean (Glycine max) [3]; [29]): 0
Plant response rating, Soybean (soybean (Glycine max) [3]; 125 g ai/ha, 0 to 100 scale): 0
Plant response rating, Wheat [4, 27]: 0
Plant response rating, Wheat [4, 28]: 0
Plant response rating, Pigweed, Palmer [5, 27]: 0
Plant response rating, Pigweed, Palmer [5, 28]: 0
Plant response rating, Ragweed [6, 29]: 10
Plant response rating, Ragweed ([6]; 125 g ai/ha, 0 to 100 scale): 0
Plant response rating, Kochia (kochia (Bassia scoparia) [7]; [29]): 0
Plant response rating, Kochia (kochia (Bassia scoparia) [7]; 125 g ai/ha, 0 to 100 scale): 0
Plant response rating, Horseweed [8, 29]: 0
Plant response rating, Horseweed ([8]; 125 g ai/ha, 0 to 100 scale): 0
Plant response rating, Goosegrass [9, 27]: 0
Plant response rating, Goosegrass [9, 28]: 0
Plant response rating, Barnyardgrass (0 to 100 scale, 0 is no effect, 100 is complete control) [10]: 0
Plant response rating, Galium [11, 29]: 0
Plant response rating, Galium ([11]; 125 g ai/ha, 0 to 100 scale): 0
Plant response rating, Blackgrass [12, 27]: 0
Plant response rating, Blackgrass [12, 28]: 0
Plant response rating, Ducksalad (0 to 100 scale, 0 is no effect, 100 is complete control) [13]: 30
Plant response rating, Wheat [14, 29]: 0
Plant response rating, Wheat ([14]; 125 g ai/ha, 0 to 100 scale): 0
Plant response rating, Corn (corn (Zea mays) [15]; [27]): 0
Plant response rating, Corn (corn (Zea mays) [15]; [28]): 0
Plant response rating, Pigweed, Palmer [16, 29]: 0
Plant response rating, Pigweed, Palmer ([16]; 125 g ai/ha, 0 to 100 scale): 0
Plant response rating, Foxtail, Giant [17, 29]: 0
Plant response rating, Foxtail, Giant ([17]; 125 g ai/ha, 0 to 100 scale): 0
Plant response rating, Corn (corn (Zea mays) [18]; [29]): 0
Plant response rating, Corn (corn (Zea mays) [18]; 125 g ai/ha, 0 to 100 scale): 0
Plant response rating, Oat, Wild [19, 29]: 0
Plant response rating, Oat, Wild ([19]; 125 g ai/ha, 0 to 100 scale): 0
Plant response rating, Goosegrass [20, 29]: 0
Plant response rating, Goosegrass ([20]; 125 g ai/ha, 0 to 100 scale): 0
Plant response rating, Kochia (kochia (Bassia scoparia) [21]; [27]): 0
Plant response rating, Kochia (kochia (Bassia scoparia) [21]; [28]): 0
Plant response rating, Ragweed [22, 27]: 0
Plant response rating, Ragweed [22, 28]: 0
Plant response rating, Ryegrass, Italian [23, 27]: 0
Plant response rating, Ryegrass, Italian [23, 28]: 0
Plant response rating, Blackgrass ([24]; 31 g ai/ha, 10 days): 0
Plant response rating, Blackgrass ([24]; 125 g ai/ha): 0
Plant response rating, Ryegrass, Italian [25, 29]: 0
Plant response rating, Ryegrass, Italian ([25]; 125 g ai/ha, 0 to 100 scale): 0
Plant response rating, Foxtail, Giant [26, 27]: 0
Plant response rating, Foxtail, Giant [26, 28]: 0
